Assay results taken from patent publication US20240290636A1, “SUBSTRATE TREATING METHOD, SUBSTRATE TREATING APPARATUS, AND TREATMENT LIQUID” (SCREEN Holdings Co., Ltd., priority 2021, published 2024).

Legend:
[1] = Vapor pressure of the sublimable substance; settings: absolute pressure
Protocol: The sublimable substance has a vapor pressure of 0.1 Pa or more and 1.0 Pa or less at normal temperatures. Here, the normal temperatures include a room temperature. The normal temperatures fall within a temperature range of 5° C. or more and 35° C. or less, for example. The normal temperatures fall within a temperature range of 10° C. or more and 30° C. or less, for example. In this specification, the value of vapor pressure is indicated as absolute pressure relative to absolute vacuum.

[2] = Excerpt: The ability of the solvent to dissolve the sublimable substance is indicated, for example, by the solubility of the sublimable substance in the solvent. Hereinafter, the solubility of the sublimable substance in the solvent is appropriately referred to as solubility Rm. The solubility Rm is a limit amount of sublimable substance that is soluble in a certain amount of solvent. As the solubility Rm increases, the ability of the solvent to dissolve the sublimable substance increases. Therefore, the solubility Rm is preferably high.
In general, the solubility Rm varies with temperature. The treatment liquid is used at normal temperatures. Therefore, the solubility Rm is preferably high at normal temperatures. The solubility Rm is preferably 150 vol % or more at normal temperatures.
For example, when the maximum volume of the sublimable substance soluble in the solvent of volume Q2c is Q1m, the solubility Rm is a ratio of the maximum volume Q1m to the volume Q2c. Specifically, the solubility Rm is defined by the following formula.

Row | vapor pressure at 25° C. [1] [Pa] | solubility Rm at 25° C. [2] [vol %] | solubility Rm at normal temperatures [2] [vol %] | Compound
1 | 0.27 | 186 | ≥ 150 | CC(=NO)c1ccccc1 [acetophenone oxime]
2 | 1.45 | – | – | ON=C1CCCCC1 [cyclohexanone oxime]

Row | Compound | vapor pressure at 25° C. [1] [Pa] | solubility Rm at 25° C. [2] [vol %] | solubility Rm at normal temperatures [2] [vol %]
3 | CC(=NO)C(C)(C)C [pinacolone oxime] | 35.3 | – | –
